From patent US10639382B2, “Method for treating leukemia” (National Guard Health Affairs, priority 2017, dated 2020) come the findings set out here.

Structures can show the parent of a compound that is named as a salt.

One assay concerns PBMC from CLL patients. The experiment in a line: Confirmation of positive hits, dose-response TiterGlo growth inhibition, PBMC from CLL patients versus healthy controls.
The subject of another assay is PBMCs from CML patients. The experiment in a line: Primary screening of FDA approved drug library, TitreGlo/CellTiter-Glo cell viability, PBMCs from CML patients. The assay is classed as cell-based, human. The conditions noted are these: compound 10 uM, PBMCs from CML patients, average over patients, relative to high control (0%) and no-cell low control (100%); for inhibition at 10 µM: Homo sapiens, PBMC, read-out: % Inhibition, CML Average. For orientation: Cellular ATP, detected with luciferase, serves as a proxy for viable cell number.

The subject of the next assay is PBMCs from ALL patients. The experiment in a line: Primary screening of FDA approved drug library, TitreGlo/CellTiter-Glo cell viability, PBMCs from ALL patients. The format is cell-based, human. The conditions noted are these: compound 10 uM, PBMCs from ALL patients, average over patients, relative to high control (0%) and no-cell low control (100%); for inhibition at 10 µM: Homo sapiens, PBMC, read-out: % Inhibition, ALL Average.

In another assay the test system is PBMC from CML patients. The experiment in a line: Confirmation of positive hits, dose-response TiterGlo growth inhibition, PBMC from CML patients versus healthy controls. The assay is classed as cell-based, human. To be noted: freshly prepared stock from solid, 24 hr incubation. How it is done:
FIG. 2A depicts data of isoproterenol inducing cell death preferentially in chronic myelogenous leukemia (CML) patients' primary PBMC as compared to PBMC from healthy individuals (Control, CTL) when incubated with different concentrations of isoproterenol prepared from liquid stock. FIG. 2B depicts data of isoproterenol inducing cell death preferentially in chronic myelogenous leukemia (CML) patients' primary PBMC as compared to PBMC from healthy individuals (Control, CTL) when incubated with different concentrations of isoproterenol prepared from a solid.

Another assay deals with PBMCs from CLL patients. Briefly: Primary screening of FDA approved drug library, TitreGlo/CellTiter-Glo cell viability, PBMCs from CLL patients. To be noted: compound 10 uM, PBMCs from CLL patients, average over patients, relative to high control (0%) and no-cell low control (100%); for inhibition at 10 µM: Homo sapiens, PBMC, read-out: % Inhibition, CLL Average. The assay is classed as cell-based, human.

A further assay deals with PBMCs from AML patients. The experiment in a line: Primary screening of FDA approved drug library, TitreGlo/CellTiter-Glo cell viability, PBMCs from AML patients. The format is cell-based, human. The conditions noted are these: compound 10 uM, PBMCs from AML patients, average over patients, relative to high control (0%) and no-cell low control (100%); for inhibition at 10 µM: Homo sapiens, PBMC, read-out: % Inhibition, AML Average.

Procedure for PBMC from CLL patients: (§1) Each compound from the ENZO FDA SCREEN-WELL® FDA approved drug library V2 (0.10 μl in 100% DMSO) was transferred to white, 384-well, PS, Cellstar plates (Greiner Bio-One) using the Echo® Liquid Handler (Labcyte Inc.). Each plate contained one column for the High/Low Controls. The Low Control (1% DMSO v/v in column 23, no cells) and the High Control (final 1% DMSO v/v in column 24, with cells) were employed to calculate the Z′ for each assay plate. […] At 24 h post seeding, baseline growth was assessed using a control plate and CellTiter-Glo (CTG) reagent (Promega Corporation). Briefly, 20 μL/well of CTG detection mix was added and plates were read using an EnVision Multimode plate reader (PerkinElmer) after 10 min incubation in the dark. The raw luminescence signal was normalized in ActivityBase XE with outliers in control wells eliminated according to the 3-sigma method to yield percentage of cell viability by using the High Control (HC) containing cells in 1% DMSO v/v (Carl Roth) and the Low Control containing 1% DMSO v/v (Carl Roth). All Medium-Throughput Screening experiments were performed in duplicate for each patient. […] The raw luminescence signal was processed using Graph Pad Prism (Graph Pad Software Inc.) with outliers in control wells eliminated according to the 3-sigma method. The dose-response curves were analyzed using a 4 parameter sigmoidal fit to obtain plausible results in the case non-sigmoidal dose-response curves.
Compound plates were prepared from the same stock used in the original screening and each compound was tested at 16 concentration point with 100 uM being the highest concentration and the dilution factor was ⅓ between two points.
The TitreGlo was performed as described and the curve for growth inhibition was plotted using activity base to calculate the EC50.
Procedure for PBMCs from ALL patients: (§2) Whole blood was taken from experimental group patients and control group patients. The collected blood was transferred to EDTA tubes with a 5 mL pipette and a pipette aid and then to each EDTA tubes corresponding 50 ml centrifuge tubes. All the blood from one patient was placed into 1 tube (50 mL) and an equal volume of PBS was added to the 50 mL centrifuge tube. The sample was then mixed by either inverting the tube or pipetting up & down. The blood was transferred into tow 50 mL leucosep tube and centrifuged at room temperature (18-20° C.) for 15 minutes at 800×g with the brake turned off and acceleration at 2/deceleration at zero. After centrifugation, the white cell interface (buffy coat) was removed by pasture pipette and transferred to the new appropriately labelled 50 ml centrifuge tube. 25 mL PBS was added to the white cell interface (buffy coat) and the mix was centrifuged for 10 minutes at room temperature at 400×g with the brake off and acceleration at 4 & deceleration at 2. The supernatant was discarded from the pellet carefully in an appropriate manner. The pellet was washed another time with 20 mL by centrifugation for 5 minutes as above. The pellet was re-suspended in 5 mL and cells were counted using V-Cell. The cells were then either used directly as fresh for screening or frozen in liquid nitrogen in 10% DMSO/RPMPI media until use.
(§3) The assay used for TitreGlo (Promega) to measure cell viability based on the ATP production. […] The assay was developed in a 384-well plate with 2500 cell/well in 50 uL total volume. Alternatively, the assay could be developed in a 96-well plate with 10,000 cells/well. […] Z′ as a statistics factor was calculated as follows:
as §1
(§4) The Screen-Well FDA approved drug library was screened, which contains 780 approved drugs. […] The final DMSO concentration in the assay plate was 0.1% of total volume. […] The average of all four control samples was then calculated and used to determine the positive “hits” in patients' samples.
(§5) Each average patient samples were plotted against average of the control samples to identify the positive hits.
Procedure for PBMCs from AML patients: as §2, §3, §1, §4, §5
Procedure for PBMCs from CLL patients: as §2, §3, §1, §4, §5
Procedure for PBMCs from CML patients: as §2, §3, §1, §5
Samples from 4 patients were screened against the FDA approved drug library where the Negative Control (High control) contained cells treated with DMSO and the Positive Control (Low control) were based using no cells. The screening was carried out in 96 well plates. The raw luminescence counts were normalized and the % Inhibition was calculated relative to the high control (0% Inhibition) and the low control (100% Inhibition).

As for `C[C@](N)(Cc1ccc(O)c(O)c1)C(=O)O` [Methyldopa], in the assay with PBMC from CLL patients (dose-response, FIG. 3), the “Effect on CLL PBMC compared to control cells” value is “show an effect on CLL PBMC better than control cell”.

A word on the inhibition: it is the change of the read-out against control, counted positive when it falls. Consider `CC(C)NCC(O)c1ccc(O)c(O)c1` (racemic) [(±) Isoproterenol HCl], for which the inhibition at 10 µM in the assay on PBMCs from CML patients is 65.3%; in the assay with PBMCs from ALL patients, 61.7%; with PBMCs from CLL patients, 39.9%. For the same molecule, the “EC50 of growth inhibition, times higher in control PBMC compared to PBMC from CML patients” value in the assay with PBMC from CML patients worked out at 4.4 times. Besides, the “EC50 of growth inhibition, times higher in control PBMC compared to PBMC from CLL patients” value in the assay with PBMC from CLL patients (freshly prepared stock from solid, 24 hr incubation, TiterGlo) came to 4.8 times.

For `CCCCCCCCc1ccc(CCC(N)(CO)CO)cc1` [Fingolimod], the inhibition at 10 µM in the assay with PBMCs from CML patients was 76.1%; in the assay on PBMCs from ALL patients it was 58.9%; in the assay on PBMCs from AML patients, 81.5%; in the assay on PBMCs from CLL patients, 47.9%.

For `COc1cc(NC(C)CCCN)c2ncccc2c1` (stereo not shown) [Primaquine Phosphate], the inhibition at 10 µM was found to be 40.9% with PBMCs from CML patients, 54.9% with PBMCs from ALL patients, 19.8% in the assay with PBMCs from AML patients and 16.9% in the assay with PBMCs from CLL patients.

Consider `[H]/N=C(\N/C(=N/[H])NCCCCCCNC(=N)NC(=N)Nc1ccc(Cl)cc1)Nc1ccc(Cl)cc1` [Chlorhexidine Dihydrochloride], for which the inhibition at 10 µM was found to be 59.9% with PBMCs from CML patients, 53.6% with PBMCs from ALL patients, 26.9% in the assay with PBMCs from AML patients and 70.3% with PBMCs from CLL patients.

Consider `C[C@H]1O[C@@H](O[C@H]2[C@@H](O)C[C@H](O[C@H]3[C@@H](O)C[C@H](O[C@H]4CC[C@@]5(C)[C@H](CC[C@@H]6[C@@H]5C[C@@H](O)[C@]5(C)[C@@H](C7=CC(=O)OC7)CC[C@]65O)C4)O[C@@H]3C)O[C@@H]2C)C[C@H](O)[C@@H]1O` [Digoxin], for which the inhibition at 10 µM is 76.8% in the assay on PBMCs from CML patients, 32% in the assay with PBMCs from ALL patients, -33.2% in the assay with PBMCs from AML patients and 30.1% in the assay on PBMCs from CLL patients.

Regarding `CNC[C@H](O)c1ccc(O)c(O)c1.O=C(O)C(O)C(O)C(=O)O` [L-(−)-Epinephrine-(+)-Bitartrate], the “% Inhibition, CML Average” value with PBMCs from CML patients amounted to 68.4%. In the assay on PBMCs from ALL patients, the “% Inhibition, ALL Average” value worked out at 80.5%. Also, the “% Inhibition, AML Average” value with PBMCs from AML patients is on record as −2.8%. In addition, the “% Inhibition, CLL Average” value in the assay on PBMCs from CLL patients is on record as 45.4%.

In the case of `C[C@@H](NCCCc1cccc(C(F)(F)F)c1)c1cccc2ccccc12` [Cinacalcet HCl], the inhibition at 10 µM in the assay with PBMCs from CML patients is 63.3%; in the assay on PBMCs from ALL patients, 41.9%; with PBMCs from AML patients, 43.2%; in the assay on PBMCs from CLL patients it was 28.6%.

In the case of `COc1cccc2c1C(=O)c1c(O)c3c(c(O)c1C2=O)C[C@@](O)(C(=O)CO)C[C@@H]3O[C@H]1C[C@H](N)[C@H](O)[C@H](C)O1` [Doxorubicin HCl], the inhibition at 10 µM is 36.7% in the assay with PBMCs from CML patients, 72.6% in the assay on PBMCs from ALL patients, 73.6% in the assay on PBMCs from AML patients and 67.2% in the assay with PBMCs from CLL patients.

`CN(C)C(=O)C(CCN1CCC(O)(c2ccc(Cl)cc2)CC1)(c1ccccc1)c1ccccc1` [Loperamide HCl]: the inhibition at 10 µM in the assay on PBMCs from CML patients amounted to 69.3%; in the assay on PBMCs from ALL patients it was 54.9%; with PBMCs from AML patients, 18.5%; in the assay with PBMCs from CLL patients, 16.3%.

For `Clc1ccc(COC(Cn2ccnc2)c2ccc(Cl)cc2Cl)c(Cl)c1` (stereo not shown) [Miconazole], the inhibition at 10 µM in the assay on PBMCs from CML patients was 69.9%; in the assay with PBMCs from ALL patients it was -35.1%; in the assay with PBMCs from AML patients it was 38.1%; with PBMCs from CLL patients, -3.3%.

With `OC(c1cc(C(F)(F)F)nc2c(C(F)(F)F)cccc12)C1CCCCN1` (stereo not shown) [Mefloquine HCl], the inhibition at 10 µM in the assay with PBMCs from CML patients turned out to be 90.4%; with PBMCs from ALL patients it was 87.7%; in the assay on PBMCs from AML patients, 72.7%; in the assay on PBMCs from CLL patients, 50.5%.

Regarding Ivermectin, the “% Inhibition, CML Average” value in the assay on PBMCs from CML patients was determined as 79.3%. The “% Inhibition, ALL Average” value with PBMCs from ALL patients worked out at 70.4%. In the assay on PBMCs from AML patients, the “% Inhibition, AML Average” value amounted to 60.2%. Moreover, the “% Inhibition, CLL Average” value in the assay with PBMCs from CLL patients was determined as 66.0%.

Turning to `NC(N)=Nc1nc(CSCCC(N)=NS(N)(=O)=O)cs1` [Famotidine], the inhibition at 10 µM in the assay on PBMCs from CML patients was determined as 17.1%; in the assay on PBMCs from ALL patients, 13.4%; in the assay on PBMCs from AML patients, 5.3%; in the assay with PBMCs from CLL patients it was 39.2%.

Turning to `Cc1cc2c(s1)Nc1ccccc1N=C2N1CCN(C)CC1` [Olanzapine], the inhibition at 10 µM with PBMCs from CML patients is 79.5%; with PBMCs from ALL patients, 71.8%; with PBMCs from AML patients, 1.8%; in the assay with PBMCs from CLL patients it was -26.5%. Moreover, in the assay on PBMC from CLL patients (fresh primary cells, FIG. 4A-4D), the “Induction of cell death in PBMC from CLL patients compared to control cells” value was “shown to induce cell death in PBMC from CLL patients compared to control cells”. Besides, the “Effect on PBMC when primary cells are tested after freezing” value with PBMC from CLL patients (primary cells tested after freezing) is “the effect is not observed”.

With `Nc1ccn([C@@H]2O[C@H](CO)[C@@H](O)[C@@H]2O)c(=O)n1` [Cytarabine], the inhibition at 10 µM stood at 58.8% in the assay with PBMCs from CML patients, 49.2% in the assay on PBMCs from ALL patients, 66.1% in the assay on PBMCs from AML patients and 26.6% with PBMCs from CLL patients.
